Earlier results, collected in patent US8790626B2, “Method for treating hair growth disorders, such as female pattern alopecia, and compositions useful therefore” (The University of Kentucky, priority 2005, dated 2014).

How the values were obtained:
[1] = U.S. Pat. No. 6,924,299
[2] = Jacobson, et al., 2005

CCCCCCCCOC(=O)c1cccnc1 [octyl nicotinate]
Blood flow and oxygen delivery to tissue [1]: stimulates blood flow and oxygen delivery to tissue

CCCCCCCCCCCCCCOC(=O)c1cccnc1 [Myristyl nicotinate, myristyl nicotinate]
Epidermal differentiation and skin barrier integrity [2]: promote epidermal differentiation leading to strong enhancement of skin barrier integrity
